How the values were obtained:
[1] = tested on: memory reproduction disorder model induce by ethanol; assay: Dark avoidance test, memory reproduction disorder model induced by ethanol; type: in vivo, ICR mice; conditions: 45% ethanol 0.1 mL/10 g gavage, compound 200 mg/kg gavage once a day 3 weeks; for Number of errors: model group 2.4 ± 1.7; for Latency period: model group 118.4 ± 106.9
Protocol: The mice employed in the present test were purchased from Xipuer-BIKAI Laboratory Animal Co., Ltd., and they were SPF grade ICR mice, 3-4 weeks old, weighing 16-18 g.
Anhydrous ethanol: Shanghai Titan Technology Co., Ltd.; Product No.: G73537B; Purity: >99.7%.
Test article preparation: 100 mg of the compound to be tested was weighed and added to 10 mL of 0.7% CMC-Na to prepare a 10 mg/mL suspension for use.
The laboratory mice were randomly divided into groups (9 or 10 mice per group). The mice in each group were administrated at a dosage of 0.2 mL/10 g body weight by oral gavage once a day for three weeks.
The laboratory mice animals were administered by gavage for three weeks. One hour after the last administration, they were trained with the YLS-17B dark avoidance tester. The test was performed 24 h later. A 45% ethanol solution (0.1 mL/10 g) was administered by oral gavage 30 min before the test. The latency period (the time from the start of counting to the first time of entering the dark compartment) and the number of errors (number of electric shocks) of the animals were recorded.
The activity box of the dark avoidance automatic tester comprises two compartments (bright and dark), there is a hole between the two compartments, the bottom of the box is covered by a copper grid, and the animals normally go into the dark compartment. Before the formal test, the laboratory mice were trained by placing the animals in the bright compartment with their backs facing the entrance of the hole, to get familiar with the environment for 5 min, and then the copper grid in the dark compartment was electrified for stimulation at a voltage of 50 V and a current of 1.00 mA (which can be adjusted according to the actual situation). When the animals received electric shock, they entered the bright compartment, or went back and forth between the two compartments. The current was continuously applied for 5 min, which served as the training process.
Testing: the mice modeled with ethanol were put into the bright box one by one with their backs facing the entrance of the hole, and the time interval between putting each animal was 5 s. After the first animal was put into the bright compartment, the electricity was applied immediately. The electricity was applied for 6 min. At the end of applying electricity, data were printed, and the latency period (the time from the start of counting to the first time of entering the dark compartment) and the number of errors (the number of electric shock during the testing period) were recorded. Due to the different time of putting the animal in, the time difference can be subtracted according to the actual time of putting the animal.
Statistical analysis: all data were expressed as the mean value±standard deviation, and SPSS software was used for analysis.

APP/PSi 2×Tg mice = assay: Water maze behavior test; type: in vivo; conditions: 200 mg/kg oral gavage once a day, 8 weeks; for The number of crossing the platform: test day 6, model group 0.9 ± 0.6; for Time in the target quadrant: test day 6, model group 12.8 ± 2.9, in s
Source text: Rodents in water have a strong incentive to escape from the water environment, and can escape from the water environment in the fastest and most direct way. The process of learning to escape from the water environment reflects the learning ability of the animals. Spatial positioning according to the surrounding environment and purposefully swimming to a safe place in the water (such as a platform) can reflect the spatial learning and memory ability of the animals.
The test animals were APP/PSi 2×Tg mice (C57BL/6 wild-type mice as the blank control). Mice of 6-8 months old, weighing 20-40 g, were purchased from The Jackson laboratory.
APP/PSi mice are APP/PSi di-transgenic Alzheimer's disease (2×Tg-AD) model mice, and the appearance of deposition of Aβ is earlier than the pathological changes of tau protein for several months, which can more truly simulate the clinical process and pathological changes of Alzheimer's disease.
Preparation of 0.7% CMC-Na: 0.7 g CMC-Na was added with a proper amount of water, heated for dissolution, left for cooling to room temperature, diluted to 100 mL, and stored at 4° C.
Preparation of BTMP: 100 mg of BTMP was added to 10 mL of 0.7% CMC-Na to prepare a 10 mg/mL suspension for use.
Preparation of test compound and comparative compound 1: 100 mg of the compound to be tested was weighted and added to 10 mL of 0.7% CMC-Na to prepare a 10 mg/mL suspension for use.
The laboratory mice were randomly divided into groups (9 or 10 mice per group). Mice in each group were administrated at a dosage of 0.2 mL/10 g body weight by oral gavage once a day for eight weeks.
The mice in the blank control group, model group and test group were orally administrated for 8 consecutive weeks according to the above administration dosage/specification. The water maze training and test were started in the last week of administration. The water maze training and test lasted for six days, with a training period of five days and a testing period of one day. In addition, during the training and testing period of water maze (6 days in total), the indoor conditions such as lighting etc. were kept consistent, the room was kept quiet, and the interference from the environment and personnel was excluded.
2.1. Preparation before the test: a proper amount of water was put into the water maze pool with the water temperature being kept at 22±3° C. The platform was placed in a fixed position (target quadrant) and 1 cm below the water surface, and titanium dioxide was added until the water became white, so that the platform could not be seen clearly.
2.2. Training period (days 1 to 5): on each day, before the first quadrant training, each mouse was placed on the platform for 15 s (to increase the mice's sense of security on the platform), and then the mouse was put into the pool (with its head facing the pool wall) from the quadrant where the platform located, and the swimming time was set as 60 s. If the mouse found the platform within 60 s and stayed for 5 s, it was regarded as the platform being found successfully. If the mouse could not find the platform, then the time was recorded as 60 s. The mouse was guided to the platform and stayed for 20 s, the mouse was then taken out, and the quadrant training for this mouse was ended.
After the first quadrant training, the mouse was trained in the remaining three quadrants sequentially, where it is not necessary to place the mouse on the platform for 15 s before training. The training of each mouse in every two quadrants was conducted at an interval of 10-15 minute. In this way, the training was performed continuously for 5 days.
2.3. Testing period (day 6): 24 hours after the last training, the platform was removed, and the mouse was dropped at the position opposite to the quadrant where the platform previously located (i.e., the position furthest away from the platform). […]

[2] = test day 6, model group 45.0 ± 8.8

Structure (SMILES) | Number of errors [1] | Latency period [1] [s] | The number of crossing the platform (APP/PSi 2×Tg mice) | Time in the target quadrant (APP/PSi 2×Tg mice) | Latency period (APP/PSi 2×Tg mice; [2]) [s] | Latency period (APP/PSi 2×Tg mice; test day 6, model group 45.0 ± 8.8, 200 mg/kg) [s] | Latency period (APP/PSi 2×Tg mice; test day 6, model group 45.0 ± 8.8, listed as compound 1, 200 mg/kg) [s]
C/C(=C(\CCOP(=O)(O)O)SC(=O)c1ccco1)N(C=O)Cc1cnc(C)nc1N [Compound 9, (Z)—S-(2-(N-((4-amino-2-methylpyrimidin-5-yl)methyl)formamido)-5-(phosphonooxy)pent-2-en-3-yl) furan-2-carbothioate] | 1.0 ± 1.0 | 216.1 ± 76.8 | 2.3 ± 0.5 | 18.6 ± 1.6 | 22.8 ± 1.3 |  | 
CCC(CC)C(=O)S/C(CCOP(=O)(O)O)=C(/C)N(C=O)Cc1cnc(C)nc1N [Compound 2, (Z)—S-(2-(N-((4-amino-2-methylpyrimidin-5-yl)methyl)formamido)-5-(phosphonooxy)pent-2-en-3-yl) 2-ethylbutanethioate] | 1.2 ± 1.3 | 217.4 ± 96.6 | 2.2 ± 0.6 | 18.8 ± 2.6 | 22.7 ± 1.1 |  | 
CCCC(CCC)C(=O)S/C(CCOP(=O)(O)O)=C(/C)N(C=O)Cc1cnc(C)nc1N [Compound 1, (Z)—S-(2-(N-((4-amino-2-methylpyrimidin-5-yl)methyl)formamido)-5-(phosphonooxy)pent-2-en-3-yl) 2-propylpentanethioate] | 1.0 ± 1.25 | 229.8 ± 90.0 | 2.4 ± 0.8 | 19.6 ± 3.4 |  | 22.0 ± 1.5 | 22.0 ± 1.5

Source: patent US20240270771A1, “Compound containing phosphate group, pharmaceutical composition containing same, preparation method therefor and use thereof” (SHANGHAI RAISING PHARMACEUTICAL CO., LTD., priority 2021, published 2024)
